Like-named read-outs stand apart in the source and are kept apart here.
Legend:
[1] = tested on: HBV viral load, AD38 cells; test: Activity of test compounds on viral production from AD38 cells (viral load by quantitative PCR of the core sequence in supernatant); assay type: cell-based, Hepatitis B virus; settings: 10 μM compound, 6 days at 37° C., vs DMSO control wells; for activity at 10 µM: Hepatitis B virus, 144 h, read-out: AD38 Viral Load (CpAM/DMSO %) at 10 μM
Experimental: (§1) AD38 cells were then re-suspended with 10 mL of treatment medium and counted. Wells of a collagen coated 96-well NUNC microtiter plate were seeded at 50,000/well in 180 μL of treatment medium, and 20 μL of either 10% DMSO (Control) or a 10× solution of test compound in 10% DMSO in treatment media was added for a final compound concentration 1, 3, or 10 μM (1.0% final [DMSO]) and plates were incubated for 6 days at 37° C.
Subsequently viral load production was assayed by quantitative PCR of the core sequence. Briefly, 5 μL of clarified supernatant was added to a PCR reaction mixture that contained forward primers HBV-f 5′-CTGTGCCTTGGGTGGCTTT-3′, Reverse primers HBV-r 5′-[…]-3′ and Fluorescent TaqMan™ Probes HBV-probe 5′-FAM/AGCTCCAAA/ZEN/[…]/3IABkFQ-3′ in Quanta Biosciences PerfeCTa® qPCR Toughmix®, and was subsequently on an Applied Biosystems VIIA7 in a final volume of 20 μL. The PCR mixture was incubated at 45° C. for 5 minutes, then 95° C. for 10 min, followed by 40 cycles of 10 seconds at 95° C. and 20 seconds at 60° C. Viral load was quantitated against known standards by using ViiA™ 7 Software. Viral load in the supernatant from wells with treated cells were compared against viral load in supernatant from DMSO control wells (≥3 per plate).

AD38 cells = test: AD38 viability normalized to DMSO control; assay type: cell-based; settings: 10 μM compound, vs DMSO control
Experimental: as §1

Structure (SMILES)	activity at 10 µM ([1]; Table 9)	AD38 Viability Normalized Result (CPAM/DMSO %) at 10 μM (AD38 cells; Table 9)	AD38 Viral Load (CpAM/DMSO %) at 10 μM ([1]; Table 9)	activity at 10 µM ([1]; Table 6)	AD38 Viability Normalized Result (CPAM/DMSO %) at 10 μM (AD38 cells; Table 6)
COC(=O)Cc1cccc(S(=O)(=O)N2CCN(c3nc(C)cc(Nc4ccc(F)cc4)n3)CC2)c1 [Compound 1412, methyl 2-(3-((4-(4-((4-fluorophenyl)amino)-6-methylpyrimidin-2-yl)piperazin-1-yl)sulfonyl)phenyl) acetate]	61%	109%			
O=S(=O)(c1ccc(OC(F)(F)F)cc1)N1CCN(c2nc(Nc3ccc(F)cc3)cc(-c3nccs3)n2)CC1 [Compound 1357]		95%	67%		
COC(=O)Cc1ccc(S(=O)(=O)N2CCN(c3nc(Nc4ccc(F)cc4)cc(C(F)(F)F)n3)CC2)cc1 [Compound 1408, methyl 2-(4-((4-(4-((4-fluorophenyl)amino)-6-(trifluoromethyl)pyrimidin-2-yl)piperazin-1-yl)sulfonyl)phenyl) acetate]		107%	8%		
CCCCOc1ccc(S(=O)(=O)N2CCN(c3nc(Nc4ccc(C#N)cc4)cc(-c4nccs4)n3)CC2)cc1 [Compound 1354]	24%	97%			
N#Cc1ccc(Nc2cc(-c3nccs3)nc(N3CCN(S(=O)(=O)c4ccc(OC(F)(F)F)cc4)CC3)n2)cc1 [Compound 1364]	62%	100%			
O=S(=O)(c1ccccc1)N1CCN(c2nc(Nc3ccc(F)cc3)cc(C(F)(F)F)n2)CC1 [Compound 1343]	6%	31%			
COc1ccc(S(=O)(=O)N2CCN(c3cc(C)nc(Nc4ccc(C)cc4)n3)CC2)cc1 [Compound 1150]				4%	89%
COc1ccc(S(=O)(=O)N2CCN(c3nc(Nc4ccc(C)cc4)cc(-c4ncc[nH]4)n3)CC2)cc1 [Compound 1274, 6-(1H-imidazol-2-yl)-2-(4-((4-methoxyphenyl)sulfonyl)piperazin-1-yl)-N-(p-tolyl) pyrimidin-4-amine]				19%	92%
Cc1cc(Nc2ccc(F)cc2)nc(N2CCN(S(=O)(=O)c3ccc(OCC(=O)O)cc3)CC2)n1 [Compound 1384, 2-(4-((4-(4-((4-fluorophenyl)amino)-6-methylpyrimidin-2-yl)piperazin-1-yl)sulfonyl)phenoxy) acetic acid]	122%	91%			
COc1ccc(S(=O)(=O)N2CCN(c3nc(Nc4ccc(C)cc4)cc(N4CCCC4=O)n3)CC2)cc1 [Compound 1212]				77%	94%
COc1ccc(S(=O)(=O)N2CCN(c3nc(C)cc(Nc4ccc5ccccc5c4)n3)CC2)cc1 [Compound 1188]				52%	105%
O=C(O)COc1ccc(S(=O)(=O)N2CCN(c3nc(Nc4ccc(F)cc4)cc(C(F)(F)F)n3)CC2)cc1 [Compound 1399, 2-(4-((4-(4-((4-fluorophenyl)amino)-6-(trifluoromethyl)pyrimidin-2-yl)piperazin-1-yl)sulfonyl)phenoxy) acetic acid]	43%	93%			
COc1ccc(S(=O)(=O)N2CCN(c3nc(C)cc(Nc4ccc(C)cn4)n3)CC2)cc1 [Compound 1200]				81%	98%
CN(C)c1cc(Nc2ccc(F)cc2)nc(N2CCN(S(=O)(=O)c3ccccc3)CC2)n1 [Compound 1304]				48%	113%
N#Cc1ccc(Nc2cc(-c3cncs3)nc(N3CCN(S(=O)(=O)c4ccc(F)cc4)CC3)n2)cc1 [Compound 1380]	10%	108%			
COCCOCCOc1ccc(S(=O)(=O)N2CCN(c3nc(Nc4ccc(F)cc4)cc(C(F)(F)F)n3)CC2)cc1 [Compound 1402]	12%	97%			
